The compounds below were run against Factor D (Homo sapiens, UniProt P00746) (assay: Factor D esterolytic assay (Z-Lys-SBzl thioester substrate, DTNB, 405 nm)). Conditions: substrate Z-Lys-SBzl 1.29 mM, 100 mM HEPES, 500 mM NaCl, pH 7.5, 10% DMSO, tested a minimum of three times.
Type: biochemical
Outline: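 Human Factor D hydrolysis of Z-Lys-SBzl (1.29 mM) monitored at 405 nm via DTNB thiol detection for 600 s, 690 nm background subtracted. Buffer 100 mM HEPES, 500 mM NaCl, pH 7.5, 10% DMSO; substrate added immediately or after room-temperature preincubation. IC50 from percent inhibition of rate, at least three tests.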

Factor D, sequence (P00746 26-253): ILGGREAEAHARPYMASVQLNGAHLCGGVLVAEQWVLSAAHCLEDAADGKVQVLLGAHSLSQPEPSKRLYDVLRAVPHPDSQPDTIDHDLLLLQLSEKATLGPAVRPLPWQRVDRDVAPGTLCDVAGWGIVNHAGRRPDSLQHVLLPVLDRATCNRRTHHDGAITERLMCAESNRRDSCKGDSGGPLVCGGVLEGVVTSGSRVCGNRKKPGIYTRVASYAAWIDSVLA

Row | SMILES | IC50 [µM]
1 | N#C[C@@H]1C[C@@H](C(=O)Nc2cccc(Br)n2)N(C(=O)Cn2c3ccc(C(F)(F)F)cc3c3c(N)ncnc32)C1 [Compound 178d, (2S,4R)-1-(2-(4-amino-6-(trifluoromethyl)-9H-pyrimido[4,5-b]indol-9-yl)acetyl)-N-(6-bromopyridin-2-yl)-4-cyanopyrrolidine-2-carboxamide] | 0.1 to 1
2 | Nc1ncnc2c1c1cc(C(F)(F)F)ccc1n2CC(=O)N1c2ccccc2C[C@H]1C(=O)Nc1cccc(Br)n1 [Compound 179d, (S)-1-(2-(4-amino-6-(trifluoromethyl)-9H-pyrimido[4,5-b]indol-9-yl)acetyl)-N-(6-bromopyridin-2-yl)indoline-2-carboxamide] | > 1
3 | Nc1ncnc2c1c1cc(C(F)(F)F)ccc1n2CC(=O)N1C[C@@H](N)C[C@H]1C(=O)Nc1cccc(Br)n1 [Compound 180e, (2S,4S)-4-amino-1-(2-(4-amino-6-(trifluoromethyl)-9H-pyrimido[4,5-b]indol-9-yl)acetyl)-N-(6-bromopyridin-2-yl)pyrrolidine-2-carboxamide] | 0.1 to 1
4 | C[C@@]12C[C@@H](C(=O)Nc3cccc(Br)n3)N(C(=O)Cn3c4ccncc4c4c(N)ncnc43)[C@@H]1C2 [Compound 181a, (1R,3S,5R)-2-(2-(4-amino-9H-pyrido[3′,4′:4,5]pyrrolo[2,3-d]pyrimidin-9-yl)acetyl)-N-(6-bromopyridin-2-yl)-5-methyl-2-azabicyclo[3.1.0]hexane-3-carboxamide] | < 0.1
5 | C[C@@]12C[C@@H](C(=O)Nc3cccc(Br)n3)N(C(=O)Cn3c4cnccc4c4c(N)ncnc43)[C@@H]1C2 [Compound 182a, (1R,3S,5R)-2-(2-(4-amino-9H-pyrido[4′,3′:4,5]pyrrolo[2,3-d]pyrimidin-9-yl)acetyl)-N-(6-bromopyridin-2-yl)-5-methyl-2-azabicyclo[3.1.0]hexane-3-carboxamide] | < 0.1
6 | CC(=O)Nc1ccc2c(c1)c1c(N)ncnc1n2CC(=O)N1[C@H](C(=O)Nc2cccc(Br)n2)C[C@@]2(C)C[C@@H]12 [Compound 185a, (1R,3S,5R)-2-(2-(6-acetamido-4-amino-9H-pyrimido[4,5-b]indol-9-yl)acetyl)-N-(6-bromopyridin-2-yl)-5-methyl-2-azabicyclo[3.1.0]hexane-3-carboxamide] | < 0.1
7 | CCOC(=O)CCc1ccc2c(c1)c1c(N)ncnc1n2CC(=O)N1[C@H](C(=O)Nc2cccc(Br)n2)C[C@@]2(C)C[C@@H]12 [Compound 190a, ethyl 3-(4-amino-9-(2-((1R,3S,5R)-3-((6-bromopyridin-2-yl)carbamoyl)-5-methyl-2-azabicyclo[3.1.0]hexan-2-yl)-2-oxoethyl)-9H-pyrimido[4,5-b]indol-6-yl)propanoate] | < 0.1
8 | CNC(=O)c1ccc2c(c1)c1c(N)ncnc1n2CC(=O)N1[C@H](C(=O)Nc2cccc(Br)n2)C[C@@]2(C)C[C@@H]12 [Compound 196d, 4-amino-9-(2-((1R,3S,5R)-3-((6-bromopyridin-2-yl)carbamoyl)-5-methyl-2-azabicyclo[3.1.0]hexan-2-yl)-2-oxoethyl)-N-methyl-9H-pyrimido[4,5-b]indole-6-carboxamide] | < 0.1
9 | C[C@@]12C[C@@H](C(=O)Nc3cccc(Br)n3)N(C(=O)Cn3c4cc(C(F)(F)F)ccc4c4c(N)ncnc43)[C@@H]1C2 [Compound 199a, (1R,3S,5R)-2-(2-(4-amino-7-(trifluoromethyl)-9H-pyrimido[4,5-b]indol-9-yl)acetyl)-N-(6-bromopyridin-2-yl)-5-methyl-2-azabicyclo[3.1.0]hexane-3-carboxamide] | < 0.1
10 | Nc1ncnc2c1c1cc(C(F)(F)F)ccc1n2CC(=O)N1C[C@H](N)C[C@H]1C(=O)Nc1cccc(Br)n1 [Compound 201e, (2S,4R)-4-amino-1-(2-(4-amino-6-(trifluoromethyl)-9H-pyrimido[4,5-b]indol-9-yl)acetyl)-N-(6-bromopyridin-2-yl)pyrrolidine-2-carboxamide] | 0.1 to 1
11 | C[C@@]12C[C@@H](C(=O)Nc3cccc(Br)n3)N(C(=O)Cn3c4ccc([N+](=O)[O-])cc4c4c(N)ncnc43)[C@@H]1C2 [Compound 202a, (1R,3S,5R)-2-(2-(4-amino-6-nitro-9H-pyrimido[4,5-b]indol-9-yl)acetyl)-N-(6-bromopyridin-2-yl)-5-methyl-2-azabicyclo[3.1.0]hexane-3-carboxamide] | < 0.1

Second part, the compound after the results:

Row | IC50 [µM] | SMILES
12 | < 0.1 | C[C@@]12C[C@@H](C(=O)Nc3cccc(Br)n3)N(C(=O)Cn3c4ncccc4c4c(N)ncnc43)[C@@H]1C2 [Compound 183a, (1R,3S,5R)-2-(2-(4-amino-9H-pyrido[3′,2′:4,5]pyrrolo[2,3-d]pyrimidin-9-yl)acetyl)-N-(6-bromopyridin-2-yl)-5-methyl-2-azabicyclo[3.1.0]hexane-3-carboxamide]
13 | < 0.1 | Cc1cc(C(F)(F)F)cc2c3c(N)ncnc3n(CC(=O)N3[C@H](C(=O)Nc4cccc(Br)n4)C[C@@]4(C)C[C@@H]34)c12 [Compound 184g, (1R,3S,5R)-2-(2-(4-amino-8-methyl-6-(trifluoromethyl)-9H-pyrimido[4,5-b]indol-9-yl)acetyl)-N-(6-bromopyridin-2-yl)-5-methyl-2-azabicyclo[3.1.0]hexane-3-carboxamide]
14 | < 0.1 | C[C@@]12C[C@@H](C(=O)Nc3cccc(Br)n3)N(C(=O)Cn3c4ncnc(N)c4c4cccc(Br)c43)[C@@H]1C2 [Compound 186a, (1R,3S,5R)-2-(2-(4-amino-8-bromo-9H-pyrimido[4,5-b]indol-9-yl)acetyl)-N-(6-bromopyridin-2-yl)-5-methyl-2-azabicyclo[3.1.0]hexane-3-carboxamide]
15 | < 0.1 | CCc1ccc2c(c1)c1c(N)ncnc1n2CC(=O)N1[C@@H]2C[C@@H]2C[C@H]1C(=O)Nc1cccc(Br)n1 [Compound 187c, (1R,3S,5R)-2-(2-(4-amino-6-ethyl-9H-pyrimido[4,5-b]indol-9-yl)acetyl)-N-(6-bromopyridin-2-yl)-2-azabicyclo[3.1.0]hexane-3-carboxamide]
16 | < 0.1 | Nc1ncnc2c1c1cc([N+](=O)[O-])ccc1n2CC(=O)N1[C@@H]2C[C@@H]2C[C@H]1C(=O)Nc1cccc(Br)n1 [Compound 188g, (1R,3S,5R)-2-(2-(4-amino-6-nitro-9H-pyrimido[4,5-b]indol-9-yl)acetyl)-N-(6-bromopyridin-2-yl)-2-azabicyclo[3.1.0]hexane-3-carboxamide]
17 | < 0.1 | Cc1cc(C)c2c(c1)c1c(N)ncnc1n2CC(=O)N1[C@@H]2C[C@@H]2C[C@H]1C(=O)Nc1cccc(Br)n1 [Compound 189g, (1R,3S,5R)-2-(2-(4-amino-6,8-dimethyl-9H-pyrimido[4,5-b]indol-9-yl)acetyl)-N-(6-bromopyridin-2-yl)-2-azabicyclo[3.1.0]hexane-3-carboxamide]
18 | < 0.1 | Cc1cc(C)c2c(c1)c1c(N)ncnc1n2CC(=O)N1[C@H](C(=O)Nc2cccc(Br)n2)C[C@@]2(C)C[C@@H]12 [Compound 191a, (1R,3S,5R)-2-(2-(4-amino-6,8-dimethyl-9H-pyrimido[4,5-b]indol-9-yl)acetyl)-N-(6-bromopyridin-2-yl)-5-methyl-2-azabicyclo[3.1.0]hexane-3-carboxamide]
19 | < 0.1 | Cc1cc(Br)cc2c3c(N)ncnc3n(CC(=O)N3[C@@H]4C[C@@H]4C[C@H]3C(=O)Nc3cccc(Br)n3)c12 [Compound 192g, (1R,3S,5R)-2-(2-(4-amino-6-bromo-8-methyl-9H-pyrimido[4,5-b]indol-9-yl)acetyl)-N-(6-bromopyridin-2-yl)-2-azabicyclo[3.1.0]hexane-3-carboxamide]
20 | < 0.1 | Cc1cc(Br)cc2c3c(N)ncnc3n(CC(=O)N3[C@H](C(=O)Nc4cccc(Br)n4)C[C@@]4(C)C[C@@H]34)c12 [Compound 193a, (1R,3S,5R)-2-(2-(4-amino-6-bromo-8-methyl-9H-pyrimido[4,5-b]indol-9-yl)acetyl)-N-(6-bromopyridin-2-yl)-5-methyl-2-azabicyclo[3.1.0]hexane-3-carboxamide]
21 | < 0.1 | Cc1cc(C(F)(F)F)cc2c3c(N)ncnc3n(CC(=O)N3[C@@H]4C[C@@H]4C[C@H]3C(=O)Nc3cccc(Br)n3)c12 [Compound 194a, (1R,3S,5R)-2-(2-(4-amino-8-methyl-6-(trifluoromethyl)-9H-pyrimido[4,5-b]indol-9-yl)acetyl)-N-(6-bromopyridin-2-yl)-2-azabicyclo[3.1.0]hexane-3-carboxamide]
22 | < 0.1 | Nc1ncnc2c1c1cc(CO)ccc1n2CC(=O)N1[C@@H]2C[C@@H]2C[C@H]1C(=O)Nc1cccc(Br)n1 [Compound 195e, (1R,3S,5R)-2-(2-(4-amino-6-(hydroxymethyl)-9H-pyrimido[4,5-b]indol-9-yl)acetyl)-N-(6-bromopyridin-2-yl)-2-azabicyclo[3.1.0]hexane-3-carboxamide]
23 | < 0.1 | Cc1ccccc1-c1ccc2c(c1)c1c(N)ncnc1n2CC(=O)N1[C@@H]2C[C@@H]2C[C@H]1C(=O)Nc1cccc(Br)n1 [Compound 197c, (1R,3S,5R)-2-(2-(4-amino-6-(o-tolyl)-9H-pyrimido[4,5-b]indol-9-yl)acetyl)-N-(6-bromopyridin-2-yl)-2-azabicyclo[3.1.0]hexane-3-carboxamide]
24 | < 0.1 | C[C@@]12C[C@@H](C(=O)Nc3cccc(Br)n3)N(C(=O)Cn3c4ncnc(N)c4c4cccc(F)c43)[C@@H]1C2 [Compound 198a, (1R,3S,5R)-2-(2-(4-amino-8-fluoro-9H-pyrimido[4,5-b]indol-9-yl)acetyl)-N-(6-bromopyridin-2-yl)-5-methyl-2-azabicyclo[3.1.0]hexane-3-carboxamide]
25 | < 0.1 | C[C@@]12C[C@@H](C(=O)Nc3cccc(Br)n3)N(C(=O)Cn3c4cc(Br)ccc4c4c(N)ncnc43)[C@@H]1C2 [Compound 200a, (1R,3S,5R)-2-(2-(4-amino-7-bromo-9H-pyrimido[4,5-b]indol-9-yl)acetyl)-N-(6-bromopyridin-2-yl)-5-methyl-2-azabicyclo[3.1.0]hexane-3-carboxamide]
